Assay results reported in patent publication US6573236B2, “Inhibiting MOG-antibody binding” (The Regents of the University of California, priority 1998, dated 2003).
Ends that are not written are not given here.

Tests used:
[1] = tested on: antigen-specific autoantibody in situ (marmoset EAE lesions); assay: Immunogold-labeled peptide staining of marmoset EAE CNS tissue sections; format: binding, C. jacchus marmoset; conditions: conjugates 1:100, silver enhancement
Protocol: Immunogold labeling was performed on ultra-thin sections of frozen or fixed tissues. Gold conjugates were prepared of (1) three MOG peptides (amino acids [aa] 1-20, aa 21-40, and aa 41-60 of human MOG (SEQ ID NO:3)) with known encephalitogenic activity in marmosets; (2) one MOG peptide that has been shown not to be encephalitogenic in marmosets (aa 101-120); (3) one human myelin basic protein (MBP) peptide (aa 82-101) that is encephalitogenic in marmosets and immunodominant in humans with the DR2 haplotype; and, as a control, (4) a peptide of mouse serum albumin (MSA; aa 560-574). Peptides having human MOG subsequences were synthesized using standard Fmoc chemistry and purified (>95%) by HPLC (Research Genetics Inc., Huntsville, Ala.): MOG 1-20, MOG 21-40, […], MBP 82-101, and MSA 560-574. The gold conjugates were synthesized by using monosulfo-N-hydroxy succinimide-Nanogold labeling reagent (particle diameter, 1.4 nm), according to the manufacturer's instructions (Nanoprobes, Stonybrook, N.Y.), followed by extensive dialysis to remove unreacted peptide. Immunoreactivity was detected on 1-μm epoxy sections of marmoset spinal cord tissue and active MS lesions. For this, sections were etched with sodium ethoxide, equilibrated in PO4-buffered saline containing 0.05% Triton X-100, and blocked with 10% normal rabbit serum. Sections were incubated with peptide-immunogold conjugates (1:100 in buffer) for 2 hours at room temperature. After washing, detection was performed by using silver enhancement (Nanoprobes). Sections were counterstained with toluidine blue. […]
(§1) As controls, sections were either pretreated with unlabeled encephalitogenic MOG peptides or MBP to block the reaction, reacted with unlabeled nonencephalitogenic MOG peptide (aa 101-120) before application of the gold conjugates, or treated with gold-labeled irrelevant antigens (histone or MSA) or irrelevant IgG (anti-goat). The specificity of the labeling with the gold conjugates of encephalitogenic MOG peptides was also assessed in western blots where the MOG protein was first reacted with immune marmoset serum. […]

[2] = tested on: MOG- and MBP-specific autoantibodies in MS lesions; assay: Immunogold-labeled peptide staining of human MS CNS tissue; format: binding; conditions: acute human MS lesions
Protocol: Immunogold labeling was performed on ultra-thin sections of frozen or fixed tissues. Gold conjugates were prepared of (1) three MOG peptides (amino acids [aa] 1-20, aa 21-40, and aa 41-60 of human MOG (SEQ ID NO:3)) with known encephalitogenic activity in marmosets; (2) one MOG peptide that has been shown not to be encephalitogenic in marmosets (aa 101-120); (3) one human myelin basic protein (MBP) peptide (aa 82-101) that is encephalitogenic in marmosets and immunodominant in humans with the DR2 haplotype; and, as a control, (4) a peptide of mouse serum albumin (MSA; aa 560-574). […] Immunoreactivity was detected on 1-μm epoxy sections of marmoset spinal cord tissue and active MS lesions. […]
as §1

| Substance | labeling of vesiculated myelin networks by gold conjugate [1] | staining of vesiculated myelin networks by gold conjugate [2] |
| --- | --- | --- |
| MBP (aa 82-101): Nanogold conjugate of human myelin basic protein peptide aa 82-101 (PADPGSRPHLIRLFSRDAPG; also: Nanogold conjugate, attachment not given here) | failed to label | to a lesser extent |
| MSA, aa 560-574: Nanogold conjugate of control peptide of mouse serum albumin aa 560-574 (KPKATAEQLKTVMDD; also: Nanogold conjugate, attachment not given here) | failed to label | not |
| gold-conjugated MOG peptide (aa 21-40): Nanogold conjugate of human MOG peptide aa 21-40 (ELPCRISPGKNATGMEVGWY; also: Nanogold conjugate, attachment not given here) | Positive reactivity | – |
